Assay results published in patent publication US5776900A, “Hemoregulatory peptides” (SmithKline Beecham Corporation, priority 1995, dated 1998).
Where no end group is shown, it is not given here. [ ]: non-standard residue; d: D form. pGlu = O=C1CC[C@@H](C(=O)O)N1

Tested on: human bone marrow stromal cell line, C6
Assay: Induction of colony stimulating activity by stromal cells; CSA of supernatant read in soft agar assay (CFU-C)
Assay type: cell-based
Conditions: 5% C6 supernatant, Lewis rat bone marrow cells
Description: Induction of Colony Stimulating Activity by Stromal Cells
The human bone marrow stromal cell line, C6, is grown to confluency in plastic tissue culture dishes in RPMI-1640 medium and 5% FBS. On the day prior to the experiment this medium is changed to DMEM without added serum. To these cultures, the compounds are added for one hour, then washed from the cultures. The medium is replaced with fresh DMEM and the cells are incubated for 24 hours at 37° C., 5% CO2. After 24 hours the C6 cell culture supernatant is collected, sterile filtered, and frozen until it can be assayed for the presence of hematopoietic colony stimulating activity (CSA) as set forth below.
Bone marrow cells are obtained from Lewis rats. They are adjusted to 10^6 cells/ml in DMEM without serum. A single layer agar system utilizing the following is used: DMEM enriched with nutrients (NaHCO3, pyruvate, amino acids, vitamins, and HEPES buffer); 0.3% Bacto agar, and 20% Lewis rat serum. To this are added dilutions of C6 cell line supernatant (10-2.5%) from above along with rat bone marrow cells (final concentration=10^5 cells/ml). The agar plates are incubated at 37° C., 5% CO2 for 7-8 days. Colonies of proliferating bone marrow cells (CFU-C) are counted utilizing a microscope. The number of agar colonies counted is proportional to the amount of CSA present within the C6 bone marrow stromal cell line supernatant.

(pGlu-Glu-Asp)2 -Sub-(Lys)2 ([pGlu]ED[Sub]K; not fully specified; printed as (pGlu-Glu-Asp)2 -Sub-(Lys)2; also: dimer via suberoyl-lysine linker) [Example 2]
Hematopoietic Colony Stimulating Activity Using 5% Supernatant, Percent of Control (dose 0.01 ng/ml): 97% of Control | Hematopoietic Colony Stimulating Activity Using 5% Supernatant, Percent of Control (dose 0.1 ng/ml): 154% of Control | Hematopoietic Colony Stimulating Activity Using 5% Supernatant, Percent of Control (dose 1 ng/ml): 188% of Control | Hematopoietic Colony Stimulating Activity Using 5% Supernatant, Percent of Control (dose 10 ng/ml): 207% of Control | Hematopoietic Colony Stimulating Activity Using 5% Supernatant, Percent of Control (dose 100 ng/ml): 241% of Control | Hematopoietic Colony Stimulating Activity Using 5% Supernatant, Percent of Control (dose 1000 ng/ml): 192% of Control
